2 molecules from US11617753B2 (priority 2016, dated 2023) can be followed below.

The target of data set [1] is T1, Ebola L polymerase (Zaire ebolavirus, UniProt Q05318). The format is cell-based, Ebola virus. The following applies: 15 μM.
The target in data set [2] is T2, Ebola VP40 protein (Zaire ebolavirus, UniProt Q05128). The data set is classed as cell-based, Ebola virus.
In data set [3] the target is T2, Ebola VP40 protein. The data set is classed as cell-based, Ebola virus. This is another data set of the same source.
A further data set has as its system EBOV-Mak. Nature of the data set: microbe, parasite or virus in culture. The format is cell-based. The conditions noted are these: Zaire ebolavirus, Huh-7, read-out: IC50, inhibition of Ebola infectivity.
The target in data set [4] is T1, Ebola L polymerase. Nature of the data set: cell-based. The arrangement: species or system Ebola virus.
The next data set deals with Huh7 cells. The following applies: human.

Where a name gives a salt, the structure may show the parent alone. Read-outs that look alike come from different tables or passages of the source.

T2 sequence (Q05128 whole entry, looked up): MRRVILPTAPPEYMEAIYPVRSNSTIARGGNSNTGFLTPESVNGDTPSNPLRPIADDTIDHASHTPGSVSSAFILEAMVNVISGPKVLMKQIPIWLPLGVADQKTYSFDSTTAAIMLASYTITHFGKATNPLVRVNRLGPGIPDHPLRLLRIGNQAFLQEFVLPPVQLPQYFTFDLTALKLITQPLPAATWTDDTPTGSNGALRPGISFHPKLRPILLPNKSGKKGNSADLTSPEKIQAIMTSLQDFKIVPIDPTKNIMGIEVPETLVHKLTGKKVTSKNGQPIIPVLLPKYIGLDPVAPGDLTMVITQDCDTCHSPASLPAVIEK
T1 sequence (Q05318 whole entry, looked up): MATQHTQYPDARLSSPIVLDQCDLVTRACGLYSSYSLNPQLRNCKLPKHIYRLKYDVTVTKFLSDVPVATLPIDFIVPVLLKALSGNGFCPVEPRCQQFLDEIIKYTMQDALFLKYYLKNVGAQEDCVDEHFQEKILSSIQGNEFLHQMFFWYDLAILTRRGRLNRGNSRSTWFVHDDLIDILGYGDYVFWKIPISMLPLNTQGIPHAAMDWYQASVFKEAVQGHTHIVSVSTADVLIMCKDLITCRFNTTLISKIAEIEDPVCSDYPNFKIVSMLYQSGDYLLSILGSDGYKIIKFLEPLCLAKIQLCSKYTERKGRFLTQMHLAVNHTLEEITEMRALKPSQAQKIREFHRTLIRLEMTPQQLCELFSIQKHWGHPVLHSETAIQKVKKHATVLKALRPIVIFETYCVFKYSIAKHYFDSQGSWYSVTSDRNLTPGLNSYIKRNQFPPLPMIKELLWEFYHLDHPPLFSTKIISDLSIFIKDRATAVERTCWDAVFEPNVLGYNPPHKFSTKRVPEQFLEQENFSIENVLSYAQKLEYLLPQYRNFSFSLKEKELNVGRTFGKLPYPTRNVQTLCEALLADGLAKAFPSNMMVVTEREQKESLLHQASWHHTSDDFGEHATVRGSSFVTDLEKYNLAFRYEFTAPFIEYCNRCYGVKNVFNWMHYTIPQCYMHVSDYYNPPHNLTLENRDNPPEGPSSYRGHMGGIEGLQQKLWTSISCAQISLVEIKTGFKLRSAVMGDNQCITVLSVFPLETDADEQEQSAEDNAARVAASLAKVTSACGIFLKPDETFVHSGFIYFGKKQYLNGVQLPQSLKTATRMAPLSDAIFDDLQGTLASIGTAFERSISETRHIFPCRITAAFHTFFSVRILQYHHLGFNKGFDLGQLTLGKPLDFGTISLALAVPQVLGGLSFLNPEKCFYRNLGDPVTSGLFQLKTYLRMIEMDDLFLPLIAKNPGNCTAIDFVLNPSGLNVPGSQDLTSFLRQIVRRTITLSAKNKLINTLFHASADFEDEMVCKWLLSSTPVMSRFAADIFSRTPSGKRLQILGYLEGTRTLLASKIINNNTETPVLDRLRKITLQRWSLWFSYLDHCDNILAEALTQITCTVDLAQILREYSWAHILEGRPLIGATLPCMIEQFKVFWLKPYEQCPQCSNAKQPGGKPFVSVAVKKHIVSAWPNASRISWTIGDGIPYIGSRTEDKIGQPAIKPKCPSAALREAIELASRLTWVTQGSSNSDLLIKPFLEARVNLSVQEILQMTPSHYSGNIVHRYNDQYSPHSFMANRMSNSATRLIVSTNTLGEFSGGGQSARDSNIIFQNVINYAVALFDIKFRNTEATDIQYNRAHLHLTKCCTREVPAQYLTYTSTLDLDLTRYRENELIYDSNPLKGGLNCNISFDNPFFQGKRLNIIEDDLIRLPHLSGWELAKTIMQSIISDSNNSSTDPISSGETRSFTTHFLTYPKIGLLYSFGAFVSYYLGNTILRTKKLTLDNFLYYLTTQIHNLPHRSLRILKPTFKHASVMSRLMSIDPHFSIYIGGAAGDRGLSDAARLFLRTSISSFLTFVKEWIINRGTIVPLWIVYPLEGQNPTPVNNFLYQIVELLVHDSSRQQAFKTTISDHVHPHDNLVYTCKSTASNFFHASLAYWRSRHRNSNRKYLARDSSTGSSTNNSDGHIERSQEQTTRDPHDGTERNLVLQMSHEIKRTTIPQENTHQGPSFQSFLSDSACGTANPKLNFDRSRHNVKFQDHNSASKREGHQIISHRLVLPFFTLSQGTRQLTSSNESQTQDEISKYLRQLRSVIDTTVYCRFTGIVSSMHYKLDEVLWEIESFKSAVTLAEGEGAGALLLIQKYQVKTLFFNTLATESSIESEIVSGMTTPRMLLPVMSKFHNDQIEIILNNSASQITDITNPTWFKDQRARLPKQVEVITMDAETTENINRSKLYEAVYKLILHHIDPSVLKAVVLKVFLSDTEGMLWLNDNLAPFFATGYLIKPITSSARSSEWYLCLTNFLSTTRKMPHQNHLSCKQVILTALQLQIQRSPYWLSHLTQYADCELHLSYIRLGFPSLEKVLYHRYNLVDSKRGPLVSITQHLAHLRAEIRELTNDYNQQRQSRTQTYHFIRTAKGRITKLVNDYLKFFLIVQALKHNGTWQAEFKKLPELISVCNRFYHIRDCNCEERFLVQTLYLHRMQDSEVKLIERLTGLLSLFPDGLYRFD

`NC(=O)c1cn([C@@H]2O[C@H](CO)[C@@H](O)[C@H]2O)c2ncnc(N)c12` [sangivamycin HCl, 4-amino-7-((2R,3R,4S,5R)-3,4-dihydroxy-5-(hydroxymethyl)tetrahydrofuran-2-yl)-7H-pyrrolo[2,3-d]pyrimidine-5-carboxamide (sangivamycin) hydrochloride]: at Ebola L polymerase [1] (hydrochloride), the “% EGFP signal” value was found to be 20% and the “% mCherry signal” value amounted to 10%.
On to `NC(=O)c1cn([C@@H]2O[C@H](CO)[C@@H](O)[C@H]2O)c2ncnc(N)c12` [sangivamycin, 4-amino-7-((2R,3R,4S,5R)-3,4-dihydroxy-5-(hydroxymethyl)tetrahydrofuran-2-yl)-7H-pyrrolo[2,3-d]pyrimidine-5-carboxamide], for which the “% EGFP signal” value on Ebola L polymerase [1] was 27%. Moreover, on Ebola L polymerase [1], the “% mCherry signal” value was found to be 4%. Besides, the “VLP isolated (western blot for VP40)” value at Ebola VP40 protein [2] (50 nM) is recorded as “clear reduction in VLP”; on Ebola VP40 protein [2] (500 nM), “drastic reduction in VLP”. For the same molecule, the “EGFP fluorescent signal, % of solvent control signal, dose-response” value on Ebola VP40 protein [3] is listed as “largest decrease in signal”. The “concentration at which VLP formation in the cell is prevented (shift in membrane associated VP40)” value at Ebola VP40 protein [3] is listed as “above 37.5 nM”. The results for the concentration for half-maximal inhibition (IC50) in the data set with EBOV-Mak and at Ebola L polymerase [4] were about 100 nM and 30 nM, respectively. The 50% cytotoxicity concentration in the data set on Huh7 cells is on record as over 600 nM.
